Data set [1] concerns BV-2. As to the kind of experiment: Anti-necroptosis activity in LPS/zVAD stimulated mouse BV-2 cells at 10 uM preincubated with LPS for 11 hrs followed by compound addition for 1 hr and exposed to zVAD-fmk for another 24 hrs by Cellcounting-Lite 2.0 luminescent cell viability assay. The data set is classed as functional, cell-based. Particulars: time 25.0 hrs.
The subject of data set [2] is BV-2. Put plainly: Synergistic anti-necroptosis activity in LPS/zVAD stimulated mouse BV-2 cells preincubated with LPS for 11 hrs followed by compound addition for 1 hr and exposed to zVAD-fmk for another 24 hrs in presence of Nec-1 by Cellcounting-Lite 2.0 luminescent cell viability assay. As to conditions: time 25.0 hrs. Format: functional, cell-based.
In data set [3] the test system is BV-2. Put plainly: Synergistic anti-necroptosis activity in LPS/zVAD stimulated mouse BV-2 cells preincubated with LPS for 11 hrs followed by compound addition for 1 hr and exposed to zVAD-fmk for another 24 hrs in presence of crizotinib by Cellcounting-Lite 2.0 luminescent cell viability assay. The data set is classed as functional, cell-based. Particulars: time 25.0 hrs.

The test system of data set [4] is BV-2. As to the kind of experiment: Anti-necroptosis activity in LPS/zVAD stimulated mouse BV-2 cells preincubated with LPS for 11 hrs followed by compound addition for 1 hr and exposed to zVAD-fmk for another 24 hrs by Cellcounting-Lite 2.0 luminescent cell viability assay. Particulars: time 25.0 hrs.
Data set [5] has as its target T1, Receptor-interacting serine/threonine-protein kinase 1 (Homo sapiens) (UniProt Q13546).
T1 sequence (whole entry): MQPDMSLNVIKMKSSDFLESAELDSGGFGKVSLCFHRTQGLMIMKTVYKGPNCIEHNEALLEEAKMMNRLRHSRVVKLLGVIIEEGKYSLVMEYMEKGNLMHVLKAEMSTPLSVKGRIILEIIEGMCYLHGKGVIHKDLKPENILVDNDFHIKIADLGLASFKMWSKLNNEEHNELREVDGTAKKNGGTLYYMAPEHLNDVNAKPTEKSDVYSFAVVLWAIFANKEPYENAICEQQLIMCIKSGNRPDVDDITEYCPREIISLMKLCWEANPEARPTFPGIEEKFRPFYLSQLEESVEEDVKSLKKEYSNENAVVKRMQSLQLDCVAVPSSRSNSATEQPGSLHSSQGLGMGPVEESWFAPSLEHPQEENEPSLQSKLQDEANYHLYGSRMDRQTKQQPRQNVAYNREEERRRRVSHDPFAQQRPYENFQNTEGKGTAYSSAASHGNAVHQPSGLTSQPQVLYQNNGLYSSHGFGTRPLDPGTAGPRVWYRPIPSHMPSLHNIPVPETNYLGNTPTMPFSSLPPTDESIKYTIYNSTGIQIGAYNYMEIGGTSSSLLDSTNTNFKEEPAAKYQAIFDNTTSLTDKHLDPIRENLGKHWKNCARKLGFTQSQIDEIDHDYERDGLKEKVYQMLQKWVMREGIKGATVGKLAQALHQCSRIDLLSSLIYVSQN
Put plainly: Inhibition of recombinant RIPK1 (1 to 327 residues) (unknown origin) expressed in Escherichia coli BL21([…]) using MBP as substrate preincubated for 15 mins followed by substrate and ATP addition and measured after 90 mins by ADP-Glo luminescence […] assay. Particulars: time 105.0 min. Background: ADP-Glo first removes unused ATP, then detects ADP through luciferase.

Data set [6] deals with BV-2. Put plainly: Cytotoxicity against mouse BV-2 cells. Format: toxicity, cell-based.
Data set [7] relates to BV-2. As to the kind of experiment: Anti-necroptosis activity in LPS/zVAD stimulated mouse BV-2 cells assessed as inhibition of extranuclear p65 at 100 nM. The data set is classed as functional, cell-based.
Data set [8] relates to Mus musculus. Put plainly: Anti-alzheimer activity against 8 month old 3xTg mouse model assessed as decrease in anxiety level at 10 mg/kg, po administered 4 times per week for 4 weeks. Format: functional, organism-based.
In data set [9] the test system is BV-2. As to the kind of experiment: Anti-necroptosis activity in LPS/zVAD stimulated mouse BV-2 cells assessed as inhibition of p65 nuclear translocation at 100 nM in presence of PF-06260933 and crizotinib. Format: functional. Details: scale not given: the % may be the effect or the level left.
For data set [10], the system named is Mus musculus. As to the kind of experiment: Anti-alzheimer activity against 8 month old 3xTg mouse model assessed as decrease in restlessness at 10 mg/kg, po administered 4 times per week for 4 weeks. Format: functional, organism-based.
The test system of data set [11] is BV-2. As to the kind of experiment: Synergistic anti-necroptosis activity in LPS/zVAD stimulated mouse BV-2 cells at 100 nM preincubated with LPS for 11 hrs followed by compound addition for 1 hr and exposed to zVAD-fmk for another 24 hrs in presence of PF-06260933 and entrectinib by Cellcounting-Lite 2.0 luminescent cell viability assay. As to conditions: time 25.0 hrs. Format: functional, cell-based.

Data set [12] relates to BV-2. Put plainly: Synergistic anti-necroptosis activity in LPS/zVAD stimulated mouse BV-2 cells at 100 nM preincubated with LPS for 11 hrs followed by compound addition for 1 hr and exposed to zVAD-fmk for another 24 hrs in presence of PF-06260933 and TAE684 by Cellcounting-Lite 2.0 luminescent cell viability assay. The data set is classed as functional, cell-based. Particulars: time 25.0 hrs.

Data set [13] concerns BV-2. As to the kind of experiment: Anti-necroptosis activity in LPS/zVAD stimulated mouse BV-2 cells assessed as inhibition of p65 activation at 100 nM in presence of PF-06260933 and crizotinib. The data set is classed as functional. Details: scale not given: the % may be the effect or the level left.
For data set [14], the system named is BV-2. As to the kind of experiment: Anti-inflammatory activity against LPS/zVAD treated mouse BV-2 cells assessed as decrease in TNFalpha release at 100 nM in presence of PF-06260933 and crizotinib by ELISA. Format: functional, cell-based. In general terms: In an ELISA, binding on a coated surface is turned into a signal by an enzyme label.
The subject of data set [15] is BV-2. As to the kind of experiment: Synergistic anti-necroptosis activity in LPS/zVAD stimulated mouse BV-2 cells at 100 nM preincubated with LPS for 11 hrs followed by compound addition for 1 hr and exposed to zVAD-fmk for another 24 hrs in presence of PF-06260933 and crizotinib by Cellcounting-Lite 2.0 luminescent cell viability assay. The data set is classed as functional, cell-based. Particulars: time 25.0 hrs.

In data set [16] the test system is BV-2. As to the kind of experiment: Synergistic anti-necroptosis activity in LPS/zVAD stimulated mouse BV-2 cells at 100 nM preincubated with LPS for 11 hrs followed by compound addition for 1 hr and exposed to zVAD-fmk for another 24 hrs in presence of PF-06260933 and LDK378 by Cellcounting-Lite 2.0 luminescent cell viability assay. The data set is classed as functional, cell-based. Particulars: time 25.0 hrs.

Data set [17] concerns Mus musculus. Put plainly: Anti-alzheimer activity against 5 month old APP/PS1 transgenic mouse model assessed as decrease in restlessness at 10 mg/kg, po administered 4 times per week for 4 weeks. The data set is classed as functional, organism-based.
Data set [18] concerns BV-2. As to the kind of experiment: Downregulation of p-RIPK1 expression in mouse BV-2 cells at 100 nM in presence of PF-06260933 and crizotinib by Western blotting analysis. The data set is classed as functional, cell-based. In general terms: A western blot detects proteins with antibodies after separation by electrophoresis.
The subject of data set [19] is Mus musculus. Put plainly: Anti-alzheimer activity against 5 month old APP/PS1 transgenic mouse model assessed as decrease in anxiety level at 10 mg/kg, po administered 4 times per week for 4 weeks. The data set is classed as functional, organism-based.
For data set [20], the system named is BV-2. Put plainly: Anti-inflammatory activity against LPS/zVAD treated mouse BV-2 cells assessed as decrease in IL-1beta release at 100 nM in presence of PF-06260933 and crizotinib by ELISA. The data set is classed as functional, cell-based.
Data set [21] concerns BV-2. As to the kind of experiment: Downregulation of p-MLKL expression in mouse BV-2 cells at 100 nM in presence of PF-06260933 and crizotinib by Western blotting analysis. The data set is classed as functional, cell-based.
In data set [22] the test system is BV-2. As to the kind of experiment: Anti-necroptosis activity in LPS/zVAD stimulated mouse BV-2 cells assessed as inhibition of p65 nuclear translocation at 100 nM. The data set is classed as functional, cell-based.

Calls of active or inactive are those of the source. The calls are words filed in the database; no cut-off is given here.

For `Nc1ccc(-c2cnc(N)c(-c3ccc(Cl)cc3)c2)cn1`, the Activity entry in the data set on BV-2 [1] is given as “Active; Activity Similar To Nec-1”. The result in the data set on BV-2 [2] and in the data set with BV-2 [3] was inactive.

On to `Cc1cc(C)c(C(N)=O)c(Nc2ccc(Cl)cc2)n1`, for which, in the data set with BV-2 [4], the outcome was Active. Besides, in [5], the Inhibition activity call was “Active”.

Regarding `CN(C(=O)c1cccn(Cc2cccc(F)c2)c1=O)c1ccccc1`, the outcome with BV-2 [4] was Active. In addition, in data set [5], the Inhibition activity call is “Active”.

On to `Cc1c(Cc2ccccc2)sc(NC(=O)c2ccccc2)c1C(N)=O`, for which the outcome in the data set with BV-2 [4] was Active. Also, in [5], the Inhibition activity call is “Active”.

As for `O=C(NCCc1ccccc1)C1CCN(C(=O)c2ccccc2F)CC1`, the outcome in the data set with BV-2 [4] was Active. For the same compound, the Inhibition activity call in [5] was “Active”.

Regarding `C[C@@H](Oc1cc(-c2cnn(C3CCNCC3)c2)cnc1N)c1c(Cl)ccc(F)c1Cl` [CRIZOTINIB], the Activity entry with BV-2 [6] is “Non-toxic”.

With `CN1C(=O)C(Cc2c[nH]c3ccccc23)NC1=S` (stereo not given) [NECROSTATIN], the outcome in the data set with BV-2 [7] and with BV-2 [3] was inactive. Further, the outcome in the data set with Mus musculus [8], with Mus musculus [10], in the data set with BV-2 [11], in the data set on BV-2 [12], in the data set on BV-2 [14] and with BV-2 [15] was Active. Also, the result in the data set on BV-2 [16], in the data set with Mus musculus [17], with BV-2 [18], with Mus musculus [19], in the data set with BV-2 [20] and with BV-2 [21] was Active. Besides, the result with BV-2 [22] was Active. Besides, the Activity in the data set on BV-2 [9] and with BV-2 [13] was 100% each time.

As for `Cc1cc(Nc2ncc(Cl)c(Nc3ccccc3S(=O)(=O)C(C)C)n2)c(OC(C)C)cc1C1CCNCC1` [CERITINIB], the result in the data set with BV-2 [4] was inactive. The Activity result in the data set with BV-2 [6] was “Toxic”.

On to `O=C1c2cccc3cccc(c23)N1Cc1ccc(F)cc1`, for which the result with BV-2 [4] was Active. Further, in [5], the Inhibition activity call was “Active”.

With `Nc1cc(-c2ccc(Br)cc2)nn1Cc1ccccc1`, in the data set on BV-2 [4], the result was Active. Further, the Inhibition activity call in data set [5] is “Active”.

The record behind these values is ChEMBL document CHEMBL6074641, “Polypharmacological Drug Design Guided by Integrating Phenotypic and Restricted Fragment Docking Strategies” (J Med Chem, 2024).
